Measurements reported in PMC6213006, “Directed Evolution of a Homodimeric Laccase from Cerrena unicolor BBP6 by Random Mutagenesis and In Vivo Assembly” (International Journal of Molecular Sciences, 2018).

Assays:
Test in all cases: ABTS oxidation at […] nm, Lineweaver-Burk, crude culture supernatant
Assay type in all cases: biochemical, Cerrena unicolor
[1] = test system: LacA (parent-type αLacA, recombinant); conditions: 100 mM acetate pH 4.0, 30 °C, 10–1000 µM ABTS, air O2; RM1905
[2] = test system: LacA (parent-type αLacA, recombinant); conditions: 100 mM acetate pH 4.0, 30 °C, 10–1000 µM ABTS, air O2; RM1524
[3] = test system: LacA (parent-type αLacA, recombinant); conditions: 100 mM acetate pH 4.0, 30 °C, 10–1000 µM ABTS, air O2; RM1925
[4] = test system: LacA (parent-type αLacA, recombinant); conditions: 100 mM acetate pH 4.0, 30 °C, 10–1000 µM ABTS, air O2; IVA205
[5] = test system: LacA (parent-type αLacA, recombinant); conditions: 100 mM acetate pH 4.0, 30 °C, 10–1000 µM ABTS, air O2; IVA189
[6] = test system: LacA (parent-type αLacA, recombinant); conditions: 100 mM acetate pH 4.0, 30 °C, 10–1000 µM ABTS, air O2; RM1307, expressed with leader mutations αN23I/αA75T
[7] = test system: LacA (parent-type αLacA, recombinant); conditions: 100 mM acetate pH 4.0, 30 °C, 10–1000 µM ABTS, air O2; RM811
[8] = test system: LacA (parent-type αLacA, recombinant); conditions: 100 mM acetate pH 4.0, 30 °C, 10–1000 µM ABTS, air O2; RM243
[9] = test system: LacA (parent-type αLacA, recombinant); conditions: 100 mM acetate pH 4.0, 30 °C, 10–1000 µM ABTS, air O2; IVA264
[10] = test system: LacA (parent-type αLacA, recombinant); conditions: 100 mM acetate pH 4.0, 30 °C, 10–1000 µM ABTS, air O2; RM464
[11] = test system: LacA (parent-type αLacA, recombinant); conditions: 100 mM acetate pH 4.0, 30 °C, 10–1000 µM ABTS, air O2

CCn1c(=NN=c2sc3cc(S(=O)(=O)O)ccc3n2CC)sc2cc(S(=O)(=O)O)ccc21 [2,2′-azino-bis(3-ethylbenzothiazoline-6-sulfonic acid)]
Km [1]: 147 ± 14.6 µM
Km [2]: 59.8 ± 2.2 µM
Km [3]: 79.8 ± 12.7 µM
Km [4]: 85.3 ± 0.3 µM
Km [5]: 69.8 ± 3.6 µM
Km [6]: 67.5 ± 1.7 µM
Km [7]: 168 µM
Km [8]: 64.8 ± 1.4 µM
Km [9]: 64 ± 2.5 µM
Km [10]: 90.2 ± 3.4 µM
Km [11]: 206 ± 11.6 µM
